Source: patent US11702402B2, “Small molecules that block proteasome-associated ubiquitin receptor RPN13 function and uses thereof” (DANA-FARBER CANCER INSTITUTE, INC., priority 2018, dated 2023)

How the values were obtained:
RPN13 [1] = target: T1, RPN13 (Homo sapiens, UniProt Q16186); experiment: Rpn13 immunoblot in MM.1S-CRBN KO cells; assay type: cell-based; parameters: endogenous in cells; host or cells: MM.1S; MM.1S-CRBN KO; RPMI-8226; ANBL6.BR; settings: 400 nM, 16 hours, versus DMSO
Experimental: FIGS. 19A-19I show the exemplary design and characterization of exemplary Rpn13 degrader WL40. […] WL40 was created by linking the Rpn13 inhibitor RA190 to the IMiD thalidomide as a ligand for the CRBN E3 ligase via a PEG linker. […] FIG. 19C is a schematic cartoon for the novel AlphaScreen assay to measure the binding activity of inhibitor with RPN13 proteins. […] FIG. 19E depicts immunoblot analysis of multiple myeloma 1S (MM.1S) cells, which were treated with WL40 or RA190 at the indicated concentrations and time periods; protein lysates were subjected to the immunoblot analysis using anti-Rpn13 or anti-tubulin Abs. FIG. 19F depicts flow cytometry analysis of MM.1S cells, which were treated with DMSO control, WL40 (400 nM), or RA190 (500 nM) for 16 hours; cells were then washed and stained with Rpn13 Ab conjugated with AlexaFluor-647, followed by the flow cytometry analysis. Isotype Ab conjugated to AlexaFluor-647 was used as control for non-specific binding. Data was quantified using FACS Diva (BD Biosciences, USA) and FlowJo (FlowJo LLC, USA). […]
To confirm that CRBN presence is a prerequisite for the function of WL40 in cells, CRBN-knockout (KO) MM.1S cells^27, 38 were utilized, and the effect of WL40 on Rpn13 degradation was examined. […] GFPu-1 cells were treated with WL40, and GFP levels were then analyzed using immunoblotting. […]

RPN13 [2] = target: T1, RPN13; experiment: Rpn13 immunoblot in RPMI-8226 cells; assay type: cell-based; parameters: endogenous in cells; host or cells: MM.1S; MM.1S-CRBN KO; RPMI-8226; ANBL6.BR; settings: RPMI-8226 (p53-mutated); 400 nM; 16 hours
Experimental: MM.1S cells, which were treated with DMSO control, bortezomib, or WL40 at indicated concentration for 3 hours; protein lysates were analyzed for different proteasome activities (CT-L, chymotrypsin-like; T-L, trypsin-like; C-L, caspase-like). FIG. 20B is a bar graph showing percent proteasome activity after normalization with DMSO control (mean±SD; n=3). Recombinant 20S proteasome was incubated with DMSO, bortezomib, or WL40 for 30 minutes, followed by assessment of the above-noted proteasome activities. FIG. 20C MM.1S cells were pretreated with exemplary proteasome inhibitor MG132 (10 μM) for 1 hour, followed by addition of WL40 (400 nM) for 8 hours. […] Total protein lysates were subjected to immunoblots for Rpn13 and α-tubulin. […] FIG. 20E ANBL6.BR cells were treated with WL40 (400 nM) or RA190 (500 nM) for 16 hours; protein lysates were subjected to immunoblot analysis using anti-Rpn13 or anti-β-actin Abs.
Cellular protein extracts were prepared using RIPA lysis buffer (50 mM Tris-HCl, 150 mM NaCl, 1% NP-40, 0.5% sodium deoxycholate, and 0.1% SDS). […]
Next, the effect of WL40 on additional MM cell lines, including p53-mutated RPMI-8226 cells or bortezomib-resistant ANBL6.BR cells, was evaluated. […]

T1 sequence (Q16186 whole entry): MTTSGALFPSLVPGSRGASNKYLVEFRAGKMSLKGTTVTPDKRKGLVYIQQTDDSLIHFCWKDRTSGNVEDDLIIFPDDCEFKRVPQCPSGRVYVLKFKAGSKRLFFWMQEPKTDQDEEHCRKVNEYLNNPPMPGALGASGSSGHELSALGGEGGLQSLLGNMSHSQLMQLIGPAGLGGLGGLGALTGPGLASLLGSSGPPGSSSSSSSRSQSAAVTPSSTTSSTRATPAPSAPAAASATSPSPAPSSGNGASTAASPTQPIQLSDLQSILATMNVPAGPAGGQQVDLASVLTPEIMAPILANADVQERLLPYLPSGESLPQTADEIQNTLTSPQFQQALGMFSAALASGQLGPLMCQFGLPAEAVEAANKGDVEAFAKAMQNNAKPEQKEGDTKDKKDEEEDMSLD

## O=C1CCC(N2C(=O)c3cccc(NCCOCCOCCOCCC(=O)N[C@@H](Cc4ccccc4)C(=O)N4C/C(=C\c5ccc(Cl)c(Cl)c5)C(=O)/C(=C/c5ccc(Cl)c(Cl)c5)C4)c3C2=O)C(=O)N1 (some centres unmarked) [WL40]
RPN13 [1]
  Rpn13 levels (immunoblot): no decrease in Rpn13 levels
RPN13 [2]
  Rpn13 levels (immunoblot): induced RPN13 degradation
